In brackets after ≈: the same amount, converted by molar mass.
Legend:
Assay type in all cases: functional
Nilaparvata lugens [1] = experiment: Insecticidal activity against third instar nymph stage of imidacloprid-susceptible Nilaparvata lugens (brown planthopper) in rice stem assessed as mortality treated for 30 secs prior to nymph infestation measured at 96 hr post-drug treatment by rice-stem dipping method
Nilaparvata lugens [2] = experiment: Resistance ratio of LC50 for Nilaparvata lugens (brown planthopper) F1' progeny to LC50 for imidacloprid-susceptible brown planthopper
Nilaparvata lugens [3] = experiment: Resistance ratio of LC50 for Nilaparvata lugens (brown planthopper) F1 progeny to LC50 for imidacloprid-susceptible brown planthopper
Nilaparvata lugens [4] = experiment: Resistance ratio of LC50 for imidacloprid-resistance Nilaparvata lugens (brown planthopper) to LC50 for imidacloprid-susceptible brown planthopper
Nilaparvata lugens [5] = experiment: Insecticidal activity against Nilaparvata lugens (brown planthopper) offspring obtained after 23 selected generations in rice stem assessed as mortality treated for 30 secs prior to nymph infestation measured at 96 hr post-drug treatment by rice-stem dipping method; conditions: read-out: Log10LC50 (converted)
Nilaparvata lugens [6] = experiment: (§1) Insecticidal activity against Nilaparvata lugens (brown planthopper) parental generation in rice stem assessed as mortality treated for 30 secs prior to nymph infestation measured at 96 hr post-drug treatment by rice-stem dipping method; conditions: read-out: Log10LC50 (converted)
Nilaparvata lugens [7] = experiment: as §1, with “F1' progeny generated from reciprocal cross between male imidacloprid-susceptible strain and female imidaclporid-resistant strain” for “parental generation”
Nilaparvata lugens [8] = experiment: as §1, with “F1 progeny generated from reciprocal cross between female imidacloprid-susceptible strain and male imidaclporid-resistant strain” for “parental generation”
Nilaparvata lugens [9] = experiment: Insecticidal activity against 23 generation selection pressure-induced imidacloprid-resistance Nilaparvata lugens (brown planthopper) at third instar nymph stage in rice stem assessed as mortality treated for 30 secs prior to nymph infestation measured at 96 hr post-drug treatment by rice-stem dipping method

O=[N+]([O-])/N=C1\NCCN1Cc1ccc(Cl)nc1 [IMIDACLOPRID]
LC50 (Nilaparvata lugens [1]): 0.11 µg/mL (≈ 0.43 µM) | RatioLC50 (Nilaparvata lugens [2]): 274.45 | RatioLC50 (Nilaparvata lugens [3]): 233.45 | RatioLC50 (Nilaparvata lugens [4]): 964.09 | LC50 (Nilaparvata lugens [5]): 9.43 mM | LC50 (Nilaparvata lugens [6]): 62.5 mM | LC50 (Nilaparvata lugens [7]): 30.2 µg/mL (≈ 118 µM) | LC50 (Nilaparvata lugens [8]): 25.7 µg/mL (≈ 100 µM) | LC50 (Nilaparvata lugens [9]): 106 µg/mL (≈ 415 µM)
